These are literature values, as cited in patent US20070135435A1, “Certain chemical entities, compositions, and methods” (priority 2005, published 2007).

Each structure is given as a SMILES string.

The subject of the data set is A549 cells.
As to `O=c1[nH]cc(F)c(=O)[nH]1` [5-fluorouracil], the GI50 (commonly the concentration giving 50% growth inhibition) was 1000 nM.

On to `COc1cccc2c1C(=O)c1c(O)c3c(c(O)c1C2=O)C[C@@](O)(C(=O)CO)C[C@@H]3O[C@H]1C[C@H](N)[C@H](O)[C@H](C)O1` [doxorubicin], for which the concentration for 50% growth inhibition (GI50) is 63 nM.

With `NC(=O)NO` [hydroxyurea], the GI50 is 500000 nM.

Take `CC(=O)O[C@H]1C(=O)[C@@]2(C)[C@H]([C@H](OC(=O)c3ccccc3)[C@]3(O)C[C@H](OC(=O)[C@H](O)[C@@H](NC(=O)c4ccccc4)c4ccccc4)C(C)=C1C3(C)C)[C@]1(OC(C)=O)CO[C@@H]1C[C@@H]2O` [paclitaxel]: the GI50 was 4 nM.
